Assay results taken from patent US9902716B2, “Fluorinated benzofuranyl-pyrimidine derivatives containing a sulfone group” (Bayer Pharma Aktiengesellschaft, priority 2014, dated 2018).

What was measured:
[1] = target: T1, CDK9/CycT1 (Homo sapiens, UniProt P50750); assay: CDK9/CycT1 kinase assay (Method 1a, TR-FRET); assay type: biochemical; conditions: 10 μM ATP; for IC50: Method 1a; for Selectivity CDK9 over CDK2: IC50 (CDK2)/IC50 (CDK9): Methods 1a and 2a
T1 construct: Recombinant full-length His-tagged human CDK9 and CycT1; His; purchased Invitrogen PV4131; host or cells: insect cells
Description: 1a. CDK9/CycT1 Kinase Assay:
CDK9/CycT1-inhibitory activity of compounds of the present invention was quantified employing the CDK9/CycT1 TR-FRET assay as described in the following paragraphs:
Recombinant full-length His-tagged human CDK9 and CycT1, expressed in insect cells and purified by Ni-NTA affinity chromatography, were purchased from Invitrogen (Cat. No PV4131). As substrate for the kinase reaction biotinylated peptide biotin-Ttds-YISPLKSPYKISEG (C-terminus in amid form) was used which can be purchased e.g. form the company JERINI Peptide Technologies (Berlin, Germany). For the assay 50 nl of a 100 fold concentrated solution of the test compound in DMSO was pipetted into a black low volume 384 well microtiter plate (Greiner Bio-One, Frickenhausen, Germany), 2 μl of a solution of CDK9/CycT1 in aqueous assay buffer [50 mM Tris/HCl pH 8.0, 10 mM MgCl2, 1.0 mM dithiothreitol, 0.1 mM sodium ortho-vanadate, 0.01% (v/v) Nonidet-P40 (Sigma)] were added and the mixture was incubated for 15 min at 22° C. to allow pre-binding of the test compounds to the enzyme before the start of the kinase reaction. Then the kinase reaction was started by the addition of 3 μl of a solution of adenosine-tri-phosphate (ATP, 16.7 μM=> final conc. in the 5 μl assay volume is 10 μM) and substrate (1.67 μM=> final conc. in the 5 μl assay volume is 1 μM) in assay buffer and the resulting mixture was incubated for a reaction time of 25 min at 22° C. The concentration of CDK9/CycT1 was adjusted depending of the activity of the enzyme lot and was chosen appropriate to have the assay in the linear range, typical concentrations were in the range of 1 μg/mL. The reaction was stopped by the addition of 5 μl of a solution of TR-FRET detection reagents (0.2 μM streptavidine-XL665 [Cisbio Bioassays, Codolet, France] and 1 nM anti-RB(pSer807/pSer811)-antibody from BD Pharmingen [#558389] and 1.2 nM LANCE EU-W1024 labeled anti-mouse IgG antibody [Perkin-Elmer, product no. AD0077]) in an aqueous EDTA-solution (100 mM EDTA, 0.2% (w/v) bovine serum albumin in 100 mM HEPES/NaOH pH 7.0).
The resulting mixture was incubated 1 h at 22° C. to allow the formation of complex between the phosphorylated biotinylated peptide and the detection reagents. Subsequently the amount of phosphorylated substrate was evaluated by measurement of the resonance energy transfer from the Euchelate to the streptavidine-XL. Therefore, the fluorescence emissions at 620 nm and 665 nm after excitation at 350 nm was measured in a HTRF reader, e.g. a Rubystar (BMG Labtechnologies, Offenburg, Germany) or a Viewlux (Perkin-Elmer). The ratio of the emissions at 665 nm and at […] was taken as the measure for the amount of phosphorylated substrate. The data were normalised (enzyme reaction without inhibitor=0% inhibition, all other assay components but no enzyme=100% inhibition).

[2] = target: T2, CDK2/CycE (Homo sapiens, UniProt P24941); assay: CDK2/CycE high ATP kinase assay (Method 2b, TR-FRET); assay type: biochemical; conditions: 2 mM ATP
T2 construct: GST; purchased ProQinase GmbH (Freiburg, Germany); host or cells: insect cells (Sf9)
Protocol: 2b. CDK2/CycE High ATP Kinase Assay:
CDK2/CycE-inhibitory activity of compounds of the present invention at 2 mM adenosine-tri-phosphate (ATP) was quantified employing the CDK2/CycE TR-FRET (TR-FRET=Time Resolved Fluorescence Energy Transfer) assay as described in the following paragraphs.
Recombinant fusion proteins of GST and human CDK2 and of GST and human CycE, expressed in insect cells (Sf9) and purified by Glutathion-Sepharose affinity chromatography, were purchase from ProQinase GmbH (Freiburg, Germany). As substrate for the kinase reaction biotinylated peptide biotin-Ttds-YISPLKSPYKISEG (C-terminus in amid form) was used which can be purchased e.g. form the company JERINI peptide technologies (Berlin, Germany).
For the assay 50 nl of a 100 fold concentrated solution of the test compound in DMSO was pipetted into a black low volume 384 well microtiter plate (Greiner Bio-One, Frickenhausen, Germany), 2 μl of a solution of CDK2/CycE in aqueous assay buffer [50 mM Tris/HCl pH 8.0, 10 mM MgCl2, 1.0 mM dithiothreitol, 0.1 mM sodium ortho-vanadate, 0.01% (v/v) Nonidet-P40 (Sigma)] were added and the mixture was incubated for 15 min at 22° C. to allow pre-binding of the test compounds to the enzyme before the start of the kinase reaction. Then the kinase reaction was started by the addition of 3 μl of a solution ATP (3.33 mM=> final conc. in the 5 μl assay volume is 2 mM) and substrate (1.25 μM=> final conc. in the 5 μl assay volume is 0.75 μM) in assay buffer and the resulting mixture was incubated for a reaction time of 25 min at 22° C. […]
The resulting mixture was incubated 1 h at 22° C. to allow the formation of complex between the phosphorylated biotinylated peptide and the detection reagents. Subsequently the amount of phosphorylated substrate was evaluated by measurement of the resonance energy transfer from the Euchelate to the streptavidine-XL. Therefore, the fluorescence emissions at 620 nm and 665 nm after excitation at 350 nm wer measured in a TR-FRET reader, e.g. a Rubystar (BMG Labtechnologies, Offenburg, Germany) or a Viewlux (Perkin-Elmer). […]

T1 sequence (P50750 whole entry): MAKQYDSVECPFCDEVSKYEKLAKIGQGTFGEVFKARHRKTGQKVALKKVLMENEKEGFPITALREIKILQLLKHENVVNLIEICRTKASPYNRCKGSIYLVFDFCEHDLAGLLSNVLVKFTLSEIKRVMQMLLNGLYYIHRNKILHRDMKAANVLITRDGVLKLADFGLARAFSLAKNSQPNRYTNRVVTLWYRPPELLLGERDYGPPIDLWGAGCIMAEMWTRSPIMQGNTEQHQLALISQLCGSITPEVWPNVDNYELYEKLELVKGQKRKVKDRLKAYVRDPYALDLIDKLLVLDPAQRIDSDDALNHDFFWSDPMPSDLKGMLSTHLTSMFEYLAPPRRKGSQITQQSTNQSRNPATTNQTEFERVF
T1 sequence (O60563 whole entry partner): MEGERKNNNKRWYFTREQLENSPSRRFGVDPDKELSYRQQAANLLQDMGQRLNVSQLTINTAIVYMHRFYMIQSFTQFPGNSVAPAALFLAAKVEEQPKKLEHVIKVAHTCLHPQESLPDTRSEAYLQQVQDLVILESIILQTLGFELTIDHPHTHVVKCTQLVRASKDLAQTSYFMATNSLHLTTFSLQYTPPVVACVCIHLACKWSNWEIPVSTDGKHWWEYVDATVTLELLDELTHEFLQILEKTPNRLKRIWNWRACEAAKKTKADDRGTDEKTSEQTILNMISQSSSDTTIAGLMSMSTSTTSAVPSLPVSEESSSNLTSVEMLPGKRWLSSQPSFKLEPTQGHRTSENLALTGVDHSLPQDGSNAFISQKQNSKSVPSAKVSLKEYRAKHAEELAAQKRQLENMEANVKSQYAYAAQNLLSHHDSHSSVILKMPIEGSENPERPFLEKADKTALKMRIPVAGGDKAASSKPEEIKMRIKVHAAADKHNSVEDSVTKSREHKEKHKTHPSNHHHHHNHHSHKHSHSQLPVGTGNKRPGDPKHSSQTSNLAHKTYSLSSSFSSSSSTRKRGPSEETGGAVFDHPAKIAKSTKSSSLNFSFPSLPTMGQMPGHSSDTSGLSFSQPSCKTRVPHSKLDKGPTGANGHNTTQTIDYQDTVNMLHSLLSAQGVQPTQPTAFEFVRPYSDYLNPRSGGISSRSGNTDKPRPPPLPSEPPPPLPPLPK

Row | IC50 [1] | Selectivity CDK9 over CDK2: IC50 (CDK2)/IC50 (CDK9) [1] | IC50 [2] | Compound
1 | 4 nM | 44 | 1320 nM | CS(=O)(=O)Cc1cccc(Nc2ncc(F)c(-c3ccc(F)c4ccoc34)n2)c1 [Example 1, 5-Fluoro-4-(4-fluoro-1-benzofuran-7-yl)-N-{3-[(methylsulfonyl)methyl]-phenyl}pyrimidin-2-amine]
2 | 3 nM | 37 | 917 nM | CCS(=O)(=O)Cc1cccc(Nc2ncc(F)c(-c3ccc(F)c4ccoc34)n2)c1 [Example 2, N-{3-[(Ethylsulfonyl)methyl]phenyl}-5-fluoro-4-(4-fluoro-1-benzofuran-7-yl)pyrimidin-2-amine]
3 | 2 nM | – | – | CS(=O)(=O)Cc1cc(F)cc(Nc2ncc(F)c(-c3ccc(F)c4ccoc34)n2)c1 [Example 3]
4 | 2 nM | 29 | 8560 nM | Cc1cc(CS(C)(=O)=O)cc(Nc2ncc(F)c(-c3ccc(F)c4ccoc34)n2)c1 [Example 4, 5-Fluoro-4-(4-fluoro-1-benzofuran-7-yl)-N-{3-methyl-5-[(methylsulfonyl)methyl]-phenyl}pyrimidin-2-amine]
